Laboratory results published in patent US9321757B2, “Heterocyclic compound” (Takeda Pharmaceutical Company Limited, priority 2013, dated 2016).

Biological target: T1, IRAK-4 (Homo sapiens, UniProt Q9NWZ3)
T1 construct: purchased Carna Biosciences, Inc
T1 sequence (Q9NWZ3 1-460): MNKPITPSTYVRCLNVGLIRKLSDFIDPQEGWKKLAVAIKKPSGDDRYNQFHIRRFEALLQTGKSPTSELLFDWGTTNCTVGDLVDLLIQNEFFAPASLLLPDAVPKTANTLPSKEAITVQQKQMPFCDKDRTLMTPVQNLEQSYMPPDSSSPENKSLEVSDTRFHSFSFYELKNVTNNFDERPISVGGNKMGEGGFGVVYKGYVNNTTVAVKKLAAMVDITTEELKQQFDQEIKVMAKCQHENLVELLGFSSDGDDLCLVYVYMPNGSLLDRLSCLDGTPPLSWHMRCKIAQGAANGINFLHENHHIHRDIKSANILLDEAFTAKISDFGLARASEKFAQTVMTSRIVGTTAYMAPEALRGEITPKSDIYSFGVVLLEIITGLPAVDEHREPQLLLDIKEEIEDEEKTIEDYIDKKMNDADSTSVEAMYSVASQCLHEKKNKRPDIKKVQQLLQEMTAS
Assay: IRAK-4 Enzyme Inhibition Test (LANCE method)
Assay type: biochemical
Conditions: compound concentration 1 μM, well without enzyme = 100% inhibition; for inhibition at 1 µM: read-out: IRAK4 enzyme inhibitory rate (%) at 1 μM
Method: IRAK-4 enzyme inhibitory activities of test compounds were measured by LANCE method (PerkinElmer). First, a test compound diluted with assay buffer (50 mM HEPES (pH7.5), 10 mM MgCl2, 1 mM EGTA, 2 mM DTT, 0.01% Tween 20, 0.01% BSA) was added to 384-well plate at 2 μL each. Then, IRAK-4 (Carna Biosciences, Inc.) and a fluorescence-labeled peptide substrate (ULight-ACC peptide, PerkinElmer) solution diluted with assay buffer at 240 ng/mL and 37.5 nM, respectively were added at 2 μL each. Then, enzyme reaction was started by adding 2 μL each of ATP solution prepared with assay buffer at 1.5 mM. After the reaction at room temperature for 1 hr, Detection Buffer (PerkinElmer) prepared to be 20 mM EDTA, 1 nM europium-labeled anti-phospho ACC antibody (PerkinElmer) was added at 6 μL each. After standing at room temperature for 1 hr, fluorescence intensity (excitation wavelength 340 nm, fluorescence wavelength 665 nm, delay time 100 microseconds) was measured by a plate reader, Envision (PerkinElmer). The inhibitory activity of each compound was calculated as relative value where fluorescence intensity of a well without enzyme is considered as 100% inhibition.

Row | SMILES | inhibition at 1 µM | IRAK4 enzyme inhibitory rate (%) at 1 μM
1 | Cn1cc(NC(=O)c2coc(-c3ccnc(NCC(F)(F)F)c3)n2)c(N2C[C@@H](O)CC2=O)n1 [Example 1, N-(3-((4S)-4-hydroxy-2-oxopyrrolidin-1-yl)-1-methyl-1H-pyrazol-4-yl)-2-(2-((2,2,2-trifluoroethyl)amino)pyridin-4-yl)-1,3-oxazole-4-carboxamide] | 98% | –
2 | CC1CCN(c2nn(C)cc2NC(=O)c2coc(-c3ccnc(NCC(F)(F)F)c3)n2)C1=O (centres unmarked) [Example 2, N-(1-methyl-3-(3-methyl-2-oxopyrrolidin-1-yl)-1H-pyrazol-4-yl)-2-(2-((2,2,2-trifluoroethyl)amino)pyridin-4-yl)-1,3-oxazole-4-carboxamide] | 98% | –
3 | CN(C)CC1CC(=O)N(c2nn(C)cc2NC(=O)c2coc(-c3ccnc(NCC(F)(F)F)c3)n2)C1 (centres unmarked) [Example 3, N-(3-(4-((dimethylamino)methyl)-2-oxopyrrolidin-1-yl)-1-methyl-1H-pyrazol-4-yl)-2-(2-((2,2,2-trifluoroethyl)amino)pyridin-4-yl)-1,3-oxazole-4-carboxamide] | 100% | –
4 | Cn1cc(NC(=O)c2coc(-c3ccnc(NCC(F)(F)F)c3)n2)c(N2CCC(C)(C)C2=O)n1 [Example 13, N-(3-(3,3-dimethyl-2-oxopyrrolidin-1-yl)-1-methyl-1H-pyrazol-4-yl)-2-(2-((2,2,2-trifluoroethyl)amino)pyridin-4-yl)-1,3-oxazole-4-carboxamide] | 98% | –
5 | CN(C)[C@H]1CC(=O)N(c2nn(C)cc2NC(=O)c2coc(-c3ccnc(NCC(F)(F)F)c3)n2)C1 [Example 16, N-(3-((4S)-4-(dimethylamino)-2-oxopyrrolidin-1-yl)-1-methyl-1H-pyrazol-4-yl)-2-(2-((2,2,2-trifluoroethyl)amino)pyridin-4-yl)-1,3-oxazole-4-carboxamide] | 98% | –
6 | C[C@H]1C(O)C(C)(C)C(=O)N1c1nn(C)cc1NC(=O)c1coc(-c2ccnc(NCC(F)(F)F)c2)n1 (stereo partly drawn) [Example 17, N-(3-((5S)-4-hydroxy-3,3,5-trimethyl-2-oxopyrrolidin-1-yl)-1-methyl-1H-pyrazol-4-yl)-2-(2-((2,2,2-trifluoroethyl)amino)pyridin-4-yl)-1,3-oxazole-4-carboxamide] | 77% | –
7 | Cc1cccc(C(=O)Nc2cn(C)nc2N2CCC(C)(C)C2=O)n1 [Example 36, N-(3-(3,3-dimethyl-2-oxopyrrolidin-1-yl)-1-methyl-1H-pyrazol-4-yl)-6-methylpyridine-2-carboxamide] | 36% | –
8 | Cn1cc(NC(=O)c2ccn(C(F)F)n2)c(N2CCC(C)(C)C2=O)n1 [Example 40, 1-(difluoromethyl)-N-(3-(3,3-dimethyl-2-oxopyrrolidin-1-yl)-1-methyl-1H-pyrazol-4-yl)-1H-pyrazole-3-carboxamide] | 56% | –
9 | Cc1cccc(C(=O)Nc2cn(C)nc2N2CCC(C)(C)C2=O)c1 [Example 46, N-(3-(3,3-dimethyl-2-oxopyrrolidin-1-yl)-1-methyl-1H-pyrazol-4-yl)-3-methylbenzamide] | 30% | –
10 | CN1CCN(c2nn(C)cc2NC(=O)c2coc(-c3ccnc(NCC(F)(F)F)c3)n2)C1=O [Example 48, N-(1-methyl-3-(3-methyl-2-oxoimidazolidin-1-yl)-1H-pyrazol-4-yl)-2-(2-((2,2,2-trifluoroethyl)amino)pyridin-4-yl)-1,3-oxazole-4-carboxamide] | 99% | –
11 | Cn1cc(NC(=O)c2coc(-c3ccnc(NCC(F)(F)F)c3)n2)c(N2CCOC2=O)n1 [Example 55, N-(1-methyl-3-(2-oxo-1,3-oxazolidin-3-yl)-1H-pyrazol-4-yl)-2-(2-((2,2,2-trifluoroethyl)amino)pyridin-4-yl)-1,3-oxazole-4-carboxamide] | 99% | –
12 | Cn1cc(NC(=O)c2coc(-c3ccnc(NCC4CC4)c3)n2)c(N2CCN(CCO)C2=O)n1 [Example 59, 2-(2-((cyclopropylmethyl)amino)pyridin-4-yl)-N-(3-(3-(2-hydroxyethyl)-2-oxoimidazolidin-1-yl)-1-methyl-1H-pyrazol-4-yl)-1,3-oxazole-4-carboxamide] | 100% | –
13 | Cn1cc(NC(=O)c2coc(-c3ccnc(NCC(F)F)c3)n2)c(N2CCN(CCO)C2=O)n1 [Example 60, 2-(2-((2,2-difluoroethyl)amino)pyridin-4-yl)-N-(3-(3-(2-hydroxyethyl)-2-oxoimidazolidin-1-yl)-1-methyl-1H-pyrazol-4-yl)-1,3-oxazole-4-carboxamide] | 99% | –
14 | CN(C)CC1CN(c2nn(C)cc2NC(=O)c2coc(-c3ccnc(NCC(F)(F)F)c3)n2)C(=O)C1(C)C (centres unmarked) [Example 61, N-(3-(4-((dimethylamino)methyl)-3,3-dimethyl-2-oxopyrrolidin-1-yl)-1-methyl-1H-pyrazol-4-yl)-2-(2-((2,2,2-trifluoroethyl)amino)pyridin-4-yl)-1,3-oxazole-4-carboxamide] | 100% | –
15 | CN(C)CC1CN(c2nn(C)cc2NC(=O)c2coc(-c3ccnc(NCC(F)(F)F)c3)n2)C(=O)C1(C)C (centres unmarked) [Example 62, N-(3-(4-((dimethylamino)methyl)-3,3-dimethyl-2-oxopyrrolidin-1-yl)-1-methyl-1H-pyrazol-4-yl)-2-(2-((2,2,2-trifluoroethyl)amino)pyridin-4-yl)-1,3-oxazole-4-carboxamide] | – | 100%
16 | C[C@H]1CCN(c2nn(C)cc2NC(=O)c2coc(-c3ccnc(NCC(F)(F)F)c3)n2)C1=O [Example 77, N-(1-methyl-3-((3S)-3-methyl-2-oxopyrrolidin-1-yl)-1H-pyrazol-4-yl)-2-(2-((2,2,2-trifluoroethyl)amino)pyridin-4-yl)-1,3-oxazole-4-carboxamide] | 99% | –
17 | Cn1cc(NC(=O)c2coc(-c3ccnc(NCC(F)(F)F)c3)n2)c(N2CC(CO)C(C)(C)C2=O)n1 (centres unmarked) [Example 101, N-(3-(4-(hydroxymethyl)-3,3-dimethyl-2-oxopyrrolidin-1-yl)-1-methyl-1H-pyrazol-4-yl)-2-(2-((2,2,2-2-trifluoroethyl)amino)pyridin-4-yl)-1,3-oxazole-4-carboxamide] | 99% | –
18 | CNCC1CN(c2nn(C)cc2NC(=O)c2coc(-c3ccnc(NCC(F)(F)F)c3)n2)C(=O)N1C (centres unmarked) [Example 110, N-(1-methyl-3-(3-methyl-4-((methylamino)methyl)-2-oxoimidazolidin-1-yl)-1H-pyrazol-4-yl)-2-(2-((2,2,2-trifluoroethyl)amino)pyridin-4-yl)-1,3-oxazole-4-carboxamide] | 98% | –
19 | CC(O)CN1CCN(c2nn(C)cc2NC(=O)c2coc(-c3ccnc(NCC(F)(F)F)c3)n2)C1=O (centres unmarked) [Example 164, N-(3-(3-(2-hydroxypropyl)-2-oxoimidazolidin-1-yl)-1-methyl-1H-pyrazol-4-yl)-2-(2-((2,2,2-trifluoroethyl)amino)pyridin-4-yl)-1,3-oxazole-4-carboxamide] | 98% | –
20 | Cn1cc(NC(=O)c2cccc(N3C[C@@H](CN)NC3=O)n2)c(N2CCC(C)(C)C2=O)n1 [Example 199, 6-((4R)-4-(aminomethyl)-2-oxoimidazolidin-1-yl)-N-(3-(3,3-dimethyl-2-oxopyrrolidin-1-yl)-1-methyl-1H-pyrazol-4-yl)pyridine-2-carboxamide] | 99% | –
